# Laboratory results from patent publication US20130164351A1 (priority 2010, published 2013).
# Assays:
# [1] = tested on: P. aeruginosa strains from cystic fibrosis patients; experiment: Macrobroth dilution MICs against two P. aeruginosa strains; format: cell-based, Pseudomonas aeruginosa
# [2] = tested on: MRSA strains from cystic fibrosis patients; experiment: CLSI microdilution MICs against 40 MRSA strains; format: cell-based, Staphylococcus aureus; parameters: MICs (range): unit not given beside the values
# Experimental: Strains. Two strains each of mucoid Pseudomonas aeruginosa (both pyocyanin positive) and 40 MRSA (only one strain with gold colonies), isolated within the past 12 months and beyond from patients at in cystic fibrosis clinic, were tested. Additionally, two B. cepacia strains were acquired from Hershey Medical Center. All strains were identified by standard methods. Only one strain per patient was tested. MLVA was done on all strains, to examine clonality and to ensure that testing was not being limited to only one or a few clones. Strains were stored in skim milk at −70° C. until use.
# (§1) Susceptibility testing. Original MICs of each strain to CEM-102 and other comparators was tested by CLSI microdilution methodology. Trays were obtained from Trek, Inc., Cleveland, Ohio. Time-kill macrobroth MIC dilution by CLSI was performed for all synergy testing.
# MICs were assayed by standard methodology.
# [3] = tested on: B. cepacia strains from cystic fibrosis patients; experiment: Macrobroth dilution MICs against two B. cepacia strains; format: cell-based, Burkholderia cepacia
# [4] = tested on: MRSA strains SA 2230, SA 2232; experiment: Time-kill macrobroth MICs, MRSA strains SA 2230 and SA 2232; format: cell-based, Staphylococcus aureus
# Experimental: as §1
# (§2) Synergy testing. Two of the MRSA strains were chosen and tested for synergy, together with the four Gram-negative strains mentioned above. Broth macrodilution formed the basis of MICs used in time-kill experiments, as detailed below. The kill kinetics of each drug was tested alone by incubating an initial inoculum of 5×10^5 to 5×10^6 cfu/ml with drug concentrations at the MIC, three dilutions above and three dilutions below the MIC (1/2, 1/4 and 1/8×MIC). Viability counts were performed after 0, 3, 6, 12 and 24 h incubation at 37° C. in a shaking water bath by plating onto trypticase soy-5% sheep blood agar plates.
# [5] = tested on: P. aeruginosa strains PSAR 461, PSAR 468; experiment: Time-kill macrobroth MICs, P. aeruginosa strains PSAR 461 and PSAR 468; format: cell-based, Pseudomonas aeruginosa; settings: strain PSAR 468
# Experimental: as §1, §2
# [6] = tested on: B. cepacia strains BCEP 953, BCEP 954; experiment: Time-kill macrobroth MICs, B. cepacia strains BCEP 953 and BCEP 954; format: cell-based, Burkholderia cepacia
# Experimental: as §1, §2
# [7] = blood; cited from earlier work
# [8] = Staphylococcus aureus, microdilution, 40 MRSA strains
molecule,measurement,setting,value
NCC[C@H](O)C(=O)N[C@@H]1C[C@H](N)[C@@H](O[C@H]2O[C@H](CN)[C@@H](O)[C@H](O)[C@H]2O)[C@H](O)[C@H]1O[C@H]1O[C@H](CO)[C@@H](O)[C@H](N)[C@H]1O [Amikacin],MIC Range,[1],2 to 8 µg/mL
"CC(=O)O[C@H]1C[C@@]2(C)[C@@H](C[C@@H](O)[C@H]3[C@@]4(C)CC[C@@H](O)[C@@H](C)[C@@H]4CC[C@@]32C)/C1=C(\CCC=C(C)C)C(=O)[O-].[Na+] [CEM-102, Sodium fusidate]",MIC50,[2]; [8],0.12 µg/mL
same,MIC90,[2]; [8],0.25 µg/mL
same,Potency in words,[2]; all strains of MRSA tested,very potent
same,MIC Range,"[2]; microdilution, 40 MRSA strains",0.12 to 0.5 µg/mL
same,MIC Range,[1],>64 µg/mL
same,MIC Range,[3],>64 µg/mL
same,Time-kill macrobroth MIC,[4]; strain SA 2230,0.5 µg/mL
same,Time-kill macrobroth MIC,[4]; strain SA 2232,0.25 µg/mL
same,Time-kill macrobroth MIC,[5],256 µg/mL
same,Time-kill macrobroth MIC,[6]; strain BCEP 953,512 µg/mL
same,Time-kill macrobroth MIC,[6]; strain BCEP 954,512 µg/mL
CCCCCCCCCC(=O)N[C@@H](Cc1c[nH]c2ccccc12)C(=O)N[C@H](CC(N)=O)C(=O)N[C@@H](CC(=O)O)C(=O)N[C@@H]1C(=O)NCC(=O)N[C@@H](CCCN)C(=O)N[C@@H](CC(=O)O)C(=O)N[C@H](C)C(=O)N[C@@H](CC(=O)O)C(=O)NCC(=O)N[C@H](CO)C(=O)N[C@@H]([C@H](C)CC(=O)O)C(=O)N[C@@H](CC(=O)c2ccccc2N)C(=O)O[C@@H]1C [Daptomycin],MIC Range,"[2]; microdilution, 40 MRSA strains",0.5-1^ μg/ml
"CC(=O)O[C@H]1C[C@@]2(C)[C@@H](C[C@@H](O)[C@H]3[C@@]4(C)CC[C@@H](O)[C@@H](C)[C@@H]4CC[C@@]32C)/C1=C(\CCC=C(C)C)C(=O)O [FA, Fusidic Acid]",protein binding,[7],95-97%
CC(=O)NC[C@H]1CN(c2ccc(N3CCOCC3)c(F)c2)C(=O)O1 [Linezolid],MICs (range),[2]; all MRSA strains tested,1-4
same,MIC Range,"[2]; microdilution, 40 MRSA strains",1 to 4 µg/mL
CN(C)c1cc(NC(=O)CNC(C)(C)C)c(O)c2c1C[C@H]1C[C@H]3[C@H](N(C)C)C(O)=C(C(N)=O)C(=O)[C@@]3(O)C(O)=C1C2=O [Tigecycline],MIC Range,"[2]; microdilution, 40 MRSA strains",0.12 to 0.25 µg/mL
"NC[C@H]1O[C@H](O[C@H]2[C@H](O)[C@@H](O[C@H]3O[C@H](CO)[C@@H](O)[C@H](N)[C@H]3O)[C@H](N)C[C@@H]2N)[C@H](N)C[C@@H]1O [Tobramycin, reference compound]",MIC Range,[1],0.25 to 1.0 µg/mL
same,MIC (reason strain not tested in combination),[4]; strain MRSA 2232,> 512 µg/mL
CN[C@H](CC(C)C)C(=O)N[C@H]1C(=O)N[C@@H](CC(N)=O)C(=O)N[C@H]2C(=O)N[C@H]3C(=O)N[C@H](C(=O)N[C@H](C(=O)O)c4cc(O)cc(O)c4-c4cc3ccc4O)[C@H](O)c3ccc(c(Cl)c3)Oc3cc2cc(c3O[C@@H]2O[C@H](CO)[C@@H](O)[C@H](O)[C@H]2O[C@H]2C[C@](C)(N)[C@H](O)[C@H](C)O2)Oc2ccc(cc2Cl)[C@H]1O [Vancomycin],MIC Range,"[2]; microdilution, 40 MRSA strains",0.5-1^ μg/ml
Teicoplanin,MIC Range,"[2]; microdilution, 40 MRSA strains",0.25 to 1 µg/mL
